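Growth conditions: 96-well plates. Treatment: test compound, 48 hours, 5 concentrations. Analysis: linear interpolation between bracketing concentrations; unreached endpoints set to highest concentration. GI50 = concentration required for 50% inhibition of growth.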 Activity calls are given as the source filed them. Cut-off read from the data, not from the text of the source: active = GI50 up to about 1.1 µM and inactive = higher.
Columns and labels:
Assay in all cases: growth of human tumour cells (NCI), 48 h
[1] = test system: 786-0
[2] = test system: HCC 2998
[3] = test system: HCT-116
[4] = test system: HCT-15
[5] = test system: KM12
[6] = test system: LOX IMVI
[7] = test system: M14
[8] = test system: MCF7
[9] = test system: OVCAR-3
[10] = test system: OVCAR-5
[11] = test system: RPMI-8226
[12] = test system: SF-539
[13] = test system: SK-MEL-5
[14] = test system: SN12C
[15] = test system: SW-620
[16] = test system: TK-10
[17] = test system: U-251
[18] = test system: UACC-257
[19] = test system: HT-29

SMILES | GI50 [1] | GI50 [2] | GI50 [3] | GI50 [4] [µM] | GI50 [5] | GI50 [6] | GI50 [7] | GI50 [8] | GI50 [9] | GI50 [10] | GI50 [11] | GI50 [12] | GI50 [13] | GI50 [14] | GI50 [15] | GI50 [16] | GI50 [17] | GI50 [18] | GI50 [19]
NS(=O)(=O)c1nnc(NS(=O)(=O)c2ccc(F)cc2)s1 | > 100 µM (inactive) | > 100 µM (inactive) | > 100 µM (inactive) | > 100 | > 100 µM (inactive) | > 100 µM (inactive) | > 100 µM (inactive) | > 100 µM (inactive) | > 100 µM (inactive) | > 100 µM (inactive) | > 100 µM (inactive) | > 100 µM (inactive) | > 100 µM (inactive) | > 100 µM (inactive) | > 100 µM (inactive) | > 100 µM (inactive) | > 100 µM (inactive) | > 100 µM (inactive) | 
Cc1ccc(S(=O)(=O)n2c3c(c4ccccc42)CCN2C(=O)C(S(=O)(=O)c4ccccc4)=CCC32)cc1 (stereo unspecified) | 0.178 µM (active) | 0.212 µM (active) | 0.17 µM (active) | 0.188 | 0.194 µM (active) | 0.185 µM (active) | 0.175 µM (active) | 0.164 µM (active) | 0.164 µM (active) | 0.23 µM (active) | 0.327 µM (active) | 0.191 µM (active) | 0.165 µM (active) | 0.211 µM (active) | 0.281 µM (active) | 0.0646 µM (active) | 0.22 µM (active) | 0.169 µM (active) | 0.212 µM (active)
Fc1cccc(F)c1C1SCc2nc3cc4ccccc4cc3n21 (stereo unspecified) | 31.2 µM (inactive) | 23.9 µM (inactive) | 47 µM (inactive) | 16 | 34 µM (inactive) | 32.9 µM (inactive) | 29.7 µM (inactive) | 47.2 µM (inactive) | 15.7 µM (inactive) | 64 µM (inactive) | 6.92 µM (inactive) | 17.2 µM (inactive) | 21.8 µM (inactive) | 34.1 µM (inactive) | 49 µM (inactive) | 96.6 µM (inactive) | 30.7 µM (inactive) | 31.6 µM (inactive) | 20.2 µM (inactive)
COc1ccc(NC(=S)c2ccc(CN3CCCCC3)s2)cc1 | 17.8 µM (inactive) | 16.6 µM (inactive) | 16.9 µM (inactive) | 12.8 | 17.7 µM (inactive) | 18.1 µM (inactive) | 16.7 µM (inactive) | 17 µM (inactive) | 33.6 µM (inactive) | 16.4 µM (inactive) | 23.4 µM (inactive) | 43.9 µM (inactive) | 14.3 µM (inactive) | 47 µM (inactive) | 19.4 µM (inactive) |  | 17.1 µM (inactive) | 16.6 µM (inactive) | 5.46 µM (inactive)
CC(NCCN(C)C)C1CCC2C3CCc4cc(O)ccc4C3CCC12C (stereo unspecified) | 1.83 µM (inactive) |  | 2.66 µM (inactive) | 2.79 | 3.21 µM (inactive) | 2.03 µM (inactive) | 1.67 µM (inactive) | 2.96 µM (inactive) | 1.88 µM (inactive) | 5.42 µM (inactive) | 2.34 µM (inactive) | 4.76 µM (inactive) | 1.71 µM (inactive) | 2 µM (inactive) | 3.33 µM (inactive) | 2.72 µM (inactive) | 2.07 µM (inactive) | 2.06 µM (inactive) | 2.89 µM (inactive)
OCC(O)COCn1cc(Cn2ncc3c(O)ncnc32)nn1 (stereo unspecified) | > 100 µM (inactive) | > 100 µM (inactive) | > 100 µM (inactive) | > 100 | > 100 µM (inactive) | > 100 µM (inactive) | > 100 µM (inactive) | > 100 µM (inactive) | > 100 µM (inactive) | > 100 µM (inactive) | > 100 µM (inactive) | > 100 µM (inactive) | > 100 µM (inactive) | > 100 µM (inactive) | > 100 µM (inactive) | > 100 µM (inactive) | > 100 µM (inactive) | > 100 µM (inactive) | > 100 µM (inactive)
CC1=CC(=O)/C(=C(/C)NCCN(CCN/C(C)=C2\C(=O)C=C(C)OC2=O)CCN/C(C)=C2\C(=O)C=C(C)OC2=O)C(=O)O1 | > 100 µM (inactive) | > 100 µM (inactive) | > 100 µM (inactive) | > 100 | > 100 µM (inactive) |  | > 100 µM (inactive) | > 100 µM (inactive) |  | > 100 µM (inactive) | > 100 µM (inactive) | > 100 µM (inactive) | > 100 µM (inactive) | > 100 µM (inactive) | > 100 µM (inactive) | > 100 µM (inactive) | > 100 µM (inactive) | > 100 µM (inactive) | > 100 µM (inactive)
CCCCCCCCCCCCCCCCOCC(COP(=O)([O-])OCC[n+]1ccc(N(C)C)cc1)OCC (stereo unspecified) | 18 µM (inactive) | 13.7 µM (inactive) | 11.3 µM (inactive) | 18.2 | 0.0527 µM (active) | 12.6 µM (inactive) | 12.4 µM (inactive) | 19.2 µM (inactive) | 11.4 µM (inactive) |  | 4.12 µM (inactive) | 13.5 µM (inactive) | 17.8 µM (inactive) | 19.7 µM (inactive) | 18.3 µM (inactive) | 14.9 µM (inactive) | 11.7 µM (inactive) |  | 13.9 µM (inactive)
O=C(CC(C(=O)c1cccs1)c1ccsc1)c1ccc(Cl)cc1 (stereo unspecified) | > 100 µM (inactive) | > 100 µM (inactive) | > 100 µM (inactive) | > 100 | > 100 µM (inactive) | > 100 µM (inactive) | > 100 µM (inactive) | > 100 µM (inactive) |  | > 100 µM (inactive) | > 100 µM (inactive) | > 100 µM (inactive) | > 100 µM (inactive) | > 100 µM (inactive) | > 100 µM (inactive) | > 100 µM (inactive) | > 100 µM (inactive) | > 100 µM (inactive) | > 100 µM (inactive)
C=CCOC(=O)N1c2ccc(O)cc2[C@@]23O[C@@]24[C@@H]1C#C/C=C\C#C[C@]3(O)C(OC)(OC)C[C@@H]4C | 22.2 µM (inactive) | 63.1 µM (inactive) | 35.2 µM (inactive) | 44.2 | 24.9 µM (inactive) |  | 23.8 µM (inactive) | 35 µM (inactive) |  | 75.9 µM (inactive) | 34.4 µM (inactive) | 21.6 µM (inactive) | 13.8 µM (inactive) | 23.8 µM (inactive) | 52.2 µM (inactive) | 29.9 µM (inactive) | 33.5 µM (inactive) | 19.1 µM (inactive) | 21.7 µM (inactive)
COC1C(=O)CCC2(CO2)C1(O)C1(C)OC1CCC(C)C (stereo unspecified) | 47.2 µM (inactive) | 47.2 µM (inactive) | 21.5 µM (inactive) | 29.4 | 10.2 µM (inactive) |  | 20.1 µM (inactive) | 54.8 µM (inactive) | > 100 µM (inactive) | > 100 µM (inactive) | > 100 µM (inactive) | > 100 µM (inactive) | 21.5 µM (inactive) | 23.3 µM (inactive) | 19.8 µM (inactive) |  | 13.5 µM (inactive) | > 100 µM (inactive) | 22.2 µM (inactive)
Cc1cc(N(CCCl)CCCl)ccc1/C=N/NC(=O)Cc1cc(=O)oc2cc(O)ccc12 | 18.8 µM (inactive) | 28.2 µM (inactive) | 17.5 µM (inactive) | 14.4 | 16.6 µM (inactive) | 12.6 µM (inactive) | 14.3 µM (inactive) | 5.83 µM (inactive) | 21.3 µM (inactive) | 31.6 µM (inactive) | 16 µM (inactive) | 18 µM (inactive) | 8.51 µM (inactive) | 16 µM (inactive) | 21.4 µM (inactive) |  | 14.2 µM (inactive) | 20.8 µM (inactive) | 14.7 µM (inactive)
CC(=O)N1C(c2[nH]c3ccccc3c2-c2ccccc2)CCN1c1ccccc1 (stereo unspecified) | > 10 µM (inactive) | > 10 µM (inactive) | > 10 µM (inactive) | > 10 |  | > 10 µM (inactive) | > 10 µM (inactive) | > 10 µM (inactive) | > 10 µM (inactive) | > 10 µM (inactive) | > 10 µM (inactive) | > 10 µM (inactive) | > 10 µM (inactive) | > 10 µM (inactive) | > 10 µM (inactive) | > 10 µM (inactive) |  | > 10 µM (inactive) | > 10 µM (inactive)
COc1cc(C2c3cc4c(cc3OC(NN)C2C)OCO4)cc(OC)c1O (stereo unspecified) | 11.3 µM (inactive) | 12.4 µM (inactive) | 4.63 µM (inactive) | 3.72 | 6.08 µM (inactive) |  | 10.4 µM (inactive) | 8.09 µM (inactive) | 3.66 µM (inactive) | 31.6 µM (inactive) | 3.95 µM (inactive) | 11.9 µM (inactive) | 4.13 µM (inactive) | 4.3 µM (inactive) | 4.73 µM (inactive) | 26.2 µM (inactive) | 7.23 µM (inactive) | 18.5 µM (inactive) | 6.22 µM (inactive)
COC(=O)c1c(O)ccc2c1c1c(n2Cc2ccccn2)C(=O)c2ccccc2C1 | > 100 µM (inactive) |  | 50 µM (inactive) | > 100 | > 100 µM (inactive) | > 100 µM (inactive) | > 100 µM (inactive) | 22.9 µM (inactive) | > 100 µM (inactive) | 49.8 µM (inactive) | 13 µM (inactive) | 87.9 µM (inactive) | > 100 µM (inactive) | > 100 µM (inactive) | > 100 µM (inactive) | > 100 µM (inactive) | > 100 µM (inactive) | 82.8 µM (inactive) | 32.8 µM (inactive)
N#Cc1c(-c2ccccc2)[nH]c(=O)n(C2OC(CO)C(O)C(O)C2O)c1=O (stereo unspecified) | > 100 µM (inactive) | > 100 µM (inactive) | > 100 µM (inactive) | > 100 | > 100 µM (inactive) |  | > 100 µM (inactive) | > 100 µM (inactive) | > 100 µM (inactive) | > 100 µM (inactive) | > 100 µM (inactive) | > 100 µM (inactive) | > 100 µM (inactive) | > 100 µM (inactive) | > 100 µM (inactive) | > 100 µM (inactive) | > 100 µM (inactive) | > 100 µM (inactive) | > 100 µM (inactive)

Reference: ChEMBL document CHEMBL1201862, “PubChem BioAssay data set” (2004)
